Reference: patent US8227620B2, “Pharmaceutical compounds” (Neuroscienze Pharmaness S.C. A.R.L., priority 2004, dated 2012)
“Also recorded” adds a separate entry of the source.

Experiments:
rat intestinal motility = experiment: Intestinal motility, Upper Gut Transit Test; assay type: in vivo; conditions: for antagonism of the constipating effect of the CB1 agonist WIN 55,212-2 / effect on the intestinal transit rate / intestinal portion run by the marker relative to the length run after physiological solution with Tween 80: i.p.; for intestinal portion run by the marker relative to the length run after physiological solution with Tween 80: compound alone
Method: To further evaluate the activity in vivo of the compounds (I) object of the present invention, functional tests were carried out to evaluate the effect of said compounds on the rat intestinal motility. It was indeed shown the involvement of the cannabinoidergic CB1 receptors in the intestinal motility regulation in rat (R. G. Pertwee et al; Br. J. Pharmacol.; 1996, 118, 2199-2205). In particular, the CB1 receptor agonists slacken the gastrointestinal motility; antagonist compounds of the same receptors have instead a prokinetic effect on the gastrointestinal transit (G. Colombo et al.; Eur. J. Pharmacol.; 1998, 344, 67-69; M. A. Casu et al.; Eur. J. Pharmacol.; 2003, 459, 97-105).
The evaluation of the constipating or prokinetic effect of the compounds was carried out by the Upper Gut Transit Test method on the basis of the procedure defined and ratified by Y. Nagakura et al.; Eur. J. Pharmacol.; 1996, 311, 67-72. The method, which allows to measure the motility of the stomach and of the first intestine tract (small or little intestine), implies: • the administration of the compound to be tested by i.p. route; • the administration of carmine red (marker not directly absorbable from the stomach) by intragastric route through a metal probe, after 20 minutes from the administration of the compound to be tested; • the rat sacrifice by cervical dislocation after a pre-fixed time (30 minutes) starting from the administration time; • the intestine explant from pylorus to the ileo-cecal valve; • the determination of the intestinal part crossed by the marker; • the data processing to determine the percentage of crossed part with respect to the total length of the small intestine.
With respect to the control (physiological solution or carrier wherein the compounds to be tested were solubilized or dispersed), the administration of CB1 agonist compounds implies a reduction of the intestinal transit percentage; an opposite effect is noticed in case of antagonist compounds. The latter are therefore capable to cancel the constipating effect of CB1 agonist compounds.
Each test was repeated on ten animals; the results reported in the Examples are the average of the results obtained with ten animals.

CB1 receptors = CB1 receptors (Rattus norvegicus, UniProt P20272); experiment: Radioreceptor binding, [3H]-CP-55,940 displacement, rat brain membranes; set-up: from tissue; host or cells: whole animal (rat), central CB1 receptors of the hypothalamus; conditions: 1 nM [3H]-CP55,940
Text: The receptorial binding technique allows indeed to establish if and with what affinity and specificity a determined compound binds itself to a particular receptor. To evaluate the affinity of a determined compound towards a particular receptor, a particular preparation of the tissue wherein the receptors are present is used and the tested compound is made to compete with another compound, treated so as to make it radioactive and of which the affinity for the receptor is known. […] The reading of the radioactivity present in the receptor-compound complex allows furthermore to precisely calculate the compound amount bound to the receptor. By this method it is therefore possible to rapidely identify the affinity of a new compound towards a specific receptor and thus to make predictions on its pharmacological activity. By repeating the same experimental scheme it is possible to evaluate the affinity of the compound towards other kinds of receptors and thus establish the specificity degree.
Food and water were available ad libitum.
The animals were sacrificed by cervical dislocation, the brain in toto (cerebellum excluded) and the spleen were rapidely dissected and maintained in ice.
The tissue was homogenized in 15 volumes (weight/volume) of TME buffer (50 mM Tris, 1 mM EDTA e 3 mM MgCl2, pH 7.4) by an Ultra-Turrax and centrifuged for 10 minutes at 1086×g in a centrifuge cooled at 4° C. The resulting supernatant was centrifuged at 45,000×g for 30 min at 4° C. by using a Beckman SW41 rotor and the final pellet was resuspended in 50 volumes of TME.
The obtained membranes (50-80 μg of proteins) were incubated in the presence of 1 nM di [^3H]-CP55,940 for 1 h at 30° C. in a final volume of 0.5 ml of TME buffer containing 5 mg/ml of bovine serum albumin (BSA). The non specific binding was measured in the presence of CP55,940 at the 1 μM concentration. […]
The radioactivity present in the filters was measured by a scintillator spectrophotometer (Tricarb 2100, Packard, Meridien, USA). […]

CB1 receptors, sequence (P20272 whole entry): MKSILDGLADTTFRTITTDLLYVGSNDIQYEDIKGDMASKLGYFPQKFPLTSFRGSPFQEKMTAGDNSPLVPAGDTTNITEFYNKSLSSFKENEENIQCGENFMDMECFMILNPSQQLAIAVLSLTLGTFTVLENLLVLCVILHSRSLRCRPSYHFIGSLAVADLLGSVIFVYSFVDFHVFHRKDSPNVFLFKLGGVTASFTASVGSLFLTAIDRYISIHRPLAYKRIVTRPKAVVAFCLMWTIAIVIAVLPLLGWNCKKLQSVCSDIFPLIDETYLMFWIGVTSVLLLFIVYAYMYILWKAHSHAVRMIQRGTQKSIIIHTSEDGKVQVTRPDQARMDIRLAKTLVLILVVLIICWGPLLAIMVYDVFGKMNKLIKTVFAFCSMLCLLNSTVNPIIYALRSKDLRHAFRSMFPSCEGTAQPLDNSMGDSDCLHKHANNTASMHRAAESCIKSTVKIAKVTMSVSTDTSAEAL

Compound: Cc1c(C(=O)NN2CCCCC2)nn(-c2ccc(Cl)cc2Cl)c1-c1ccc(Cl)s1 [Example 3.1b, N-piperidinyl-5-(5-Chloro-thiophen-2-yl)-1-(2′,4′-dichloro-phenyl)-4-methyl-1H-pyrazol-3-carboxamide]
- length run by the marker relative to physiological solution, WIN 55,212-2 preceded by the compound (rat intestinal motility; WIN 55,212-2 0.5 mg/kg preceded by compound 1.0 mg/kg): the same length
- antagonism of the constipating effect of the CB1 agonist WIN 55,212-2 (rat intestinal motility): capable to antagonize the effect of a CB1 agonist; also recorded: capable to antagonize the constipating effect of the CB1 agonist WIN 55,212-2
- effect on the intestinal transit rate (rat intestinal motility): increase the intestinal transit rate
- intestinal portion run by the marker relative to the length run after physiological solution with Tween 80 (rat intestinal motility; 0.5 mg of compound/kg): 1.57 times
- intestinal portion run by the marker relative to the length run after physiological solution with Tween 80 (rat intestinal motility; 1.0 mg of compound/kg): 1.76 times
- Ki (CB1 receptors): 35 ± 2.5 nM

Compound: N-pyrrolidinyl-5-(5-Chloro-thiophen-2-yl)-1-(2,4′-dichloro-phenyl)-4-methyl-1H-pyrazol-3-carboxamide [Example 3.1d]
- length run by the marker relative to physiological solution, WIN 55,212-2 preceded by the compound (rat intestinal motility; WIN 55,212-2 0.5 mg/kg preceded by compound 0.5 mg/kg): the same length
- antagonism of the constipating effect of the CB1 agonist WIN 55,212-2 (rat intestinal motility): capable to antagonize the effect of a CB1 agonist
- effect on the intestinal transit rate (rat intestinal motility): increase the intestinal transit rate
- intestinal portion run by the marker relative to the length run after physiological solution with Tween 80 (rat intestinal motility; 0.5 mg of compound/kg): 1.61 times
- intestinal portion run by the marker relative to the length run after physiological solution with Tween 80 (rat intestinal motility; 1.0 mg of compound/kg): 1.74 times
- Ki (CB1 receptors): 63 ± 7.2 nM
